Like-named read-outs stand apart in the source and are kept apart here.
Legend:
[1] = test system: HD patients with CAG repeat length >=50; conditions: for TFC LS Mean change vs placebo: 45 mg bid (n=1) vs placebo (n=4); for TFC LS Mean change from baseline: n=1
Protocol: (§1) All patients began treatment with a 2-week titration period (45 mg once a day) followed by full-dose treatment for 63-78 weeks.
(§2) Efficacy was evaluated using the following clinical endpoints: Change from Baseline to Week 78 in composite UHDRS (cUHDRS) total score, Total Functional Capacity (UHDRS-TFC) score and Stroop Word Reading (SWR) testing for cognitive assessment.
The UHDRS-TFC score is a commonly used and regulatory-accepted clinical scale used for assessing the functional capacity of subjects with HD and monitoring the disease's progression and severity over time. This score ranges from 0 to 13 and higher scores indicate better functional capacity. A score of 13 means that the individual is entirely functional with no indications of impairment, while a score of 0 indicates complete dependence on others for daily activities.

[2] = test system: HD patients with CAG repeat length >=50; conditions: 45 mg bid; up to 78 weeks; CAG >=50
Protocol: as §1, §2

[3] = test system: HD patients with CAG repeat length >=50; conditions: for cUHDRS LS Mean change vs placebo: 45 mg bid (n=1) vs placebo (n=4); for cUHDRS LS Mean change from baseline: n=1
Protocol: as §1, §2
The composite Unified Huntington's Disease Rating Scale (cUHDRS) is a clinical scale used for evaluating the severity and progression of Huntington's disease (HD).
The cUHDRS is a composite scale assessing overall progression of independent key aspects of HD: functional ability, motor symptoms, and cognitive function. cUHDRS comprises four subscales: Total Functional Capacity (TFC), Total Motor Score (TMS), and 2 cognitive measures: the Symbol-Digit Modality Test (SDMT), and Stroop Word Reading (SWR) Test.
The cUHDRS score is a validated scale used for tracking disease progression and evaluating treatment effectiveness in subjects with HD. Higher scores on cUHDRS indicates better overall disease state. By measuring multiple domains, the cUHDRS provides a global and comprehensive assessment of the disease stage.

[4] = test system: dopamine D2/D3 receptors; conditions: low-affinity binding; cited from earlier work
[5] = 45 mg bid, up to 78 weeks, CAG >=50
[6] = Week 26, 45 mg bid, CAG >=50, positive change = improvement

With CCCN1CCC(c2cccc(S(C)(=O)=O)c2)CC1 [Pridopidine, 4-[3-(methylsulfonyl)phenyl]-1-propyl-piperidine] the “effect on TFC / functional capacity compared to placebo (in words)” value [1, 5] was “marked improvement”, the “TFC LS Mean change vs placebo” value ([1]; Week 26) was 2.99 points and the “TFC LS Mean change from baseline” value [1, 6] was 2.96. For the same molecule, the “TFC LS Mean change vs placebo” value ([1]; Week 39) was 3.06 points, the “TFC LS Mean change from baseline” value ([1]; Week 39, 45 mg bid, CAG >=50) was 2.96 and the “TFC LS Mean change vs placebo” value ([1]; Week 52) was 3.00 points. The “TFC LS Mean change from baseline” value ([1]; Week 52, 45 mg bid, CAG >=50) was 2.91, the “TFC LS Mean change vs placebo” value ([1]; Week 65) was 2.90 points and the “TFC LS Mean change from baseline” value ([1]; Week 65, 45 mg bid, CAG >=50) was 2.61. For the same molecule, the “TFC LS Mean change vs placebo” value ([1]; Week 78) was 3.45 points, the “TFC LS Mean change from baseline” value ([1]; Week 78, 45 mg bid, CAG >=50) was 2.93 and the “effect on SWR / cognitive function compared to placebo (in words)” value [2] was “marked improvement”. For the same molecule, the “effect on cUHDRS / disease progression compared to placebo (in words)” value [3, 5] was “marked improvement”, the “cUHDRS LS Mean change vs placebo” value ([3]; Week 26) was 2.52 points and the “cUHDRS LS Mean change from baseline” value [3, 6] was 1.79. For the same molecule, the “cUHDRS LS Mean change vs placebo” value ([3]; Week 39) was 2.66 points, the “cUHDRS LS Mean change from baseline” value ([3]; Week 39, 45 mg bid, CAG >=50) was 1.83 and the “cUHDRS LS Mean change vs placebo” value ([3]; Week 52) was 2.49 points. For the same molecule, the “cUHDRS LS Mean change from baseline” value ([3]; Week 52, 45 mg bid, CAG >=50) was 1.67, the “cUHDRS LS Mean change vs placebo” value ([3]; Week 65) was 2.32 points and the “cUHDRS LS Mean change from baseline” value ([3]; Week 65, 45 mg bid, CAG >=50) was 1.41. For the same molecule, the “cUHDRS LS Mean change vs placebo” value ([3]; Week 78) was 2.52 points, the “cUHDRS LS Mean change from baseline” value ([3]; Week 78, 45 mg bid, CAG >=50) was 1.42 and the “binding affinity to dopamine D2/D3 receptors” value [4] was “in the micromolar range”.

From patent US20260207575A1, “P[…] THE TREATMENT OF JUVENILE HUNTINGTON DISEASE” (Prilenia Neurotherapeutics Ltd., priority 2022, published 2026)
